In patent US20210379066A1, “COMBINATIONS OF POSITIVE ALLOSTERIC MODULATORS AND NICOTINIC ACETYLCHOLINE RECEPTOR AGONISTS FOR TREATING OCULAR CONDITIONS” (Oyster Point Pharma, Inc., priority 2018, published 2021):
Where “and” joins values, the source holds several entries; their conditions need not be identical. Equal values may be shown once. Read-outs that look alike come from different tables or passages of the source.

Key:
[1] = biological target: nAChR subtype alpha3beta2 (Homo sapiens, UniProt P17787+P32297); assay: Agonist characterisation versus ACh response (description); format: cell-based
Excerpt: nAChR agonist response, from which receptor activation can be determined can, for example, be generated using an appropriate cell-based assay. Cells designed to express a particular nAChR receptor subtype and generate an electrical current response when bound to and activated by a nAChR agonist can be used to characterize the agonist profile of a compound and the amount of receptor activation thus determined. An example of a generic protocol is described below.
Cells that express a particular human nAChR subtype are first exposed to ACh. ACh binds and activates the receptor, thereby evoking a current. The concentration of the ACh is chosen to elicit the maximum response of the receptor (e.g., 1280 micromolar ACh). This current is recorded as the ACh response and serves as the 100% nAChR agonist response and to which responses to other nAChR agonists are compared. After washing, the cells are exposed to a nAChR agonist at various concentrations (e.g., 0.1, 0.3, 1, 3, 10, 30, 100, and 300 micromolar). The current evoked by exposure to the nAChR agonist is measured and recorded for each nAChR concentration. This nAChR agonist response data is then normalized to unity versus the maximal ACh evoked current and plotted as a function of the logarithm of the nAChR agonist concentration. The nAChR agonist response is then calculated as a percentage of the ACh response.

[2] = Pharmacokinetics in human subjects after 28 days of intranasal administration (Example 7); format: in vivo
Procedure: Blood plasma for the patients was collected on Day 29 predose (time 0) and after a series of time points (10 min, 20 min, 30 min, 1 hr, 2 hrs, 4 hrs, 5 hrs, 6 hrs, 7 hrs, 8 hrs, and 24 hrs) after a single administration of drug. The blood plasma was analyzed for Compound 1.
The following pharmacokinetic parameters for Compound 1 were calculated: • Cmax: Maximum observed concentration, observed by inspection of individual study participant plasma concentration time plots. • Tmax: Time of maximum observed concentration, obtained directly from the observed concentration time data. • AUClast: The area under the plasma concentration time curve, from time 0 to the last measurable non-zero concentration, calculated by a combination of linear and logarithmic trapezoidal methods (Linear up/log down method). • AUC0-4h: The area under the plasma concentration time curve, from time 0 to the 4 h time point, calculated by a combination of linear and logarithmic trapezoidal methods (Linear up/log down method). • AUCinf: The area from zero time (pre-dose) extrapolated to infinite time (AUCinf) will be calculated as follows: AUCinf=AUClast+Cz/λz. • AUC % Extrap: The percentage of AUCinf obtained by extrapolation (AUC % Extrap) will be calculated as follows:
[formula] • Half-life: Terminal elimination half-life.

[3] = Max, N=7, Day 29 dose after 28 days BID
[4] = Min, N=7, Day 29 dose after 28 days BID
[5] = human, plasma, other: intranasal spray, […] Compound 1, 50 μL spray in each nostril, Max, N=7, Day 29 dose after 28 days BID
[6] = human, plasma, other: intranasal spray, […] Compound 1, 50 μL spray in each nostril, Mean, N=7, Day 29 dose after 28 days BID
[7] = human, plasma, other: intranasal spray, […] Compound 1, 50 μL spray in each nostril, Median, N=7, Day 29 dose after 28 days BID

Chain of nAChR subtype alpha3beta2 (P32297 32-505): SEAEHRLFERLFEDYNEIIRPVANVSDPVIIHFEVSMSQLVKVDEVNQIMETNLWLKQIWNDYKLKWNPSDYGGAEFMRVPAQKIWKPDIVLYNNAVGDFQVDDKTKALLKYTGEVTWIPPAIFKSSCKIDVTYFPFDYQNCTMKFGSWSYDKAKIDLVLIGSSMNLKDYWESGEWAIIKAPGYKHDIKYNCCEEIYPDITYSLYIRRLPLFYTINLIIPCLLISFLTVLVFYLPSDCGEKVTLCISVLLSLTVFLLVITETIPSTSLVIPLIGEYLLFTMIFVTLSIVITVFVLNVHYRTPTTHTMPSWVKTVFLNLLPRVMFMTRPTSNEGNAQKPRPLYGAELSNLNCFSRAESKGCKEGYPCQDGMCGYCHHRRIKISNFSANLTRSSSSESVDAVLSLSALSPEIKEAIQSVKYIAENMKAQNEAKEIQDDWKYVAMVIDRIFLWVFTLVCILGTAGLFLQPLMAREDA
Chain of nAChR subtype alpha3beta2 (P17787 26-502): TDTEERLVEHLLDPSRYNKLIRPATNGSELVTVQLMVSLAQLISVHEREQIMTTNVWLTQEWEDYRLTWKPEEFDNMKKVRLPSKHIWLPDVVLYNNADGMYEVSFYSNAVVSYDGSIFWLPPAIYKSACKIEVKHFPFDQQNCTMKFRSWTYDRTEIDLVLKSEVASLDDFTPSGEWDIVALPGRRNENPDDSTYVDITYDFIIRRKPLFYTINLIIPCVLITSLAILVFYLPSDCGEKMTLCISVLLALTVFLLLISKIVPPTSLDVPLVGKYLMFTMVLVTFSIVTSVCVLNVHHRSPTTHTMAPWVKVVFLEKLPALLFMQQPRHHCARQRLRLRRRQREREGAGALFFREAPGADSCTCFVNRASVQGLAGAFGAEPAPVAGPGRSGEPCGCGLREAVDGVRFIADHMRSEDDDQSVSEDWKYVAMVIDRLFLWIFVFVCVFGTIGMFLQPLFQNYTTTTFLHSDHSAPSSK

For C(=C\[C@H]1CCNC1)/c1cncnc1 [Compound 1, (R)-5-((E)-2-pyrrolidin-3-ylvinyl)pyrimidine], which agonist character [1] is on record?
The agonist character was “partial agonist”.

And the “AUC % Extrap” value [2, 3]?
Its value is 41.1%.

What about the Tmax [2, 3] of the same compound?
The Tmax was 1.2 h.

And the “AUC % Extrap” value ([2]; Mean, N=7, Day 29 dose after 28 days BID)?
The value was 21.3%.

What about the “AUC % Extrap” value ([2]; Median, N=7, Day 29 dose after 28 days BID) of the same compound?
The value was 23.3%.

What about the “AUC % Extrap” value [2, 4] of the same compound?
The value was 3.69% and 3.67%.

What about the AUCinf [2, 4] of the same compound?
Its AUCinf is 1.21 ng·h/mL.

And the AUClast [2, 4]?
The AUClast was 0.801 ng·h/mL.

And the Cmax [2, 4]?
Its Cmax is 0.621 ng/mL.

What about the Tmax [2, 4] of the same compound?
Its Tmax is 0.17 h.

What about the half-life [2, 4] of the same compound?
The half-life was 0.852 h.

And the half-life ([2]; human, plasma, inhaled or intranasal, […] Compound 1, 50 μL spray in each nostril, Mean, N=7, Day 29 single intranasal dose of […] Compound 1 (2.0% hemigalactarate salt) after 28 days BID, 50 μL per nostril, read-out: Half-life (converted))?
The half-life was 1.58 ± 0.818 h.

And the Cmax ([2]; human, plasma, other: intranasal spray, […] Compound 1, 50 μL spray in each nostril, Max (individual subject maximum), N=7, Day 29 dose after 28 days BID, read-out: Cmax)?
The Cmax was 5.49 ng/mL.

What about the AUC(0-inf) [2, 5] of the same compound?
The AUC(0-inf) was 12.5 ng·h/mL.

And the AUC(0-t) [2, 5]?
Its AUC(0-t) is 12.1 ng·h/mL.

And the half-life ([2]; human, plasma, other: intranasal spray, […] Compound 1, 50 μL spray in each nostril, Max, N=7, Day 29 dose after 28 days BID, read-out: Half-life (converted))?
Its half-life is 2.83 h.

And the AUC(0-inf) [2, 6]?
The AUC(0-inf) was 6.22 ± 4.63 ng·h/mL.

What about the AUC(0-t) [2, 6] of the same compound?
The AUC(0-t) was 5.22 ± 4.52 ng·h/mL.

And the Cmax ([2]; human, plasma, other: intranasal spray, […] Compound 1, 50 μL spray in each nostril, Mean, N=7, Day 29 dose after 28 days BID, read-out: Cmax)?
The Cmax was 2.26 ± 1.96 ng/mL.

And the Tmax ([2]; human, plasma, other: intranasal spray, […] Compound 1, 50 μL spray in each nostril, Mean, N=7, Day 29 dose after 28 days BID, read-out: Tmax)?
The Tmax was 0.7 h.

And the AUC(0-inf) [2, 7]?
The AUC(0-inf) was 5.67 ng·h/mL.

What about the AUC(0-t) [2, 7] of the same compound?
Its AUC(0-t) is 4.35 ng·h/mL.

What about the Cmax ([2]; human, plasma, other: intranasal spray, […] Compound 1, 50 μL spray in each nostril, Median, N=7, Day 29 dose after 28 days BID, read-out: Cmax) of the same compound?
The Cmax was 1.35 ng/mL.

What about the half-life ([2]; human, plasma, other: intranasal spray, […] Compound 1, 50 μL spray in each nostril, Median, N=7, Day 29 dose after 28 days BID, read-out: Half-life (converted)) of the same compound?
The half-life was 1.12 h.

And the Tmax ([2]; human, plasma, other: intranasal spray, […] Compound 1, 50 μL spray in each nostril, Median, N=7, Day 29 dose after 28 days BID, read-out: Tmax)?
Its Tmax is 0.5 h.

And the C0 ([2]; human, plasma, other: intranasal spray, […] Compound 1, 50 μL spray in each nostril, Day 29 predose after 28 days BID, detected in 4 out of 7 subjects, read-out: mean plasma concentration at time zero (predose))?
Its C0 is 0.264 ng/mL.

What about the concentration at 1 h ([2]; human, plasma, other: intranasal spray, […] Compound 1, 50 μL spray in each nostril, at 1 h after intranasal administration on Day 29, read-out: peak of mean plasma exposure) of the same compound?
Its concentration at 1 h is 2.07 ng/mL.

What about the concentration at 24 h ([2]; human, plasma, other: intranasal spray, […] Compound 1, 50 μL spray in each nostril, no subject above lower limit of quantification, read-out: plasma concentration at 24 h post administration) of the same compound?
Its concentration at 24 h is less than 0.2 ng/mL.

What about the “fraction cleared from systemic circulation before the next administration” value ([2]; if administered every 12 hours (4 half-lives), from maximum individual half-life) of the same compound?
The value was greater than 94%.
